How the values were obtained:
Human PKMYT1 = target: T1, Human PKMYT1 (Homo sapiens, UniProt Q99640); test: PKMYT1 biochemical ADP-Glo enzymatic assay; settings: ADP-Glo
T1 construct: Human PKMYT1 75-362 was cloned as a TEV cleavable 6xHis fusion; 6xHis (TEV cleavable) (cleaved yes); made in house; host or cells: bacterial cells
T1 sequence (Q99640 75-362): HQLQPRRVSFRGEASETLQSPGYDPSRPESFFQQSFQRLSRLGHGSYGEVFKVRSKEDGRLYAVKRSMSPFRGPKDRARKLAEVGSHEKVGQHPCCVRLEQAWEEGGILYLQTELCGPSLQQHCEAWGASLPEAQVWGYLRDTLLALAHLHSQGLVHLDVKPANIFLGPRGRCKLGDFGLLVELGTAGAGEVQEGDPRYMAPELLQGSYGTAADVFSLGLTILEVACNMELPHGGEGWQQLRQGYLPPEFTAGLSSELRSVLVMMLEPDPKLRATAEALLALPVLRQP
In short: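 Luminescent ADP-Glo Max read-out of ADP produced by 15 nM PKMYT1 (residues 75-362, bacterial, His-tag removed) from 500 µM ATP without peptide substrate. Reaction: 50 mM HEPES pH 7.5, 10 mM MgCl2, 1 mM EGTA, 0.01% Brij-35, 60 min, 26 °C. IC50 values fitted from 10-point curves.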

WEE1 = target: T2, WEE1 (Homo sapiens, UniProt P30291); test: Selectivity versus WEE1 assay (ADP-Glo enzymatic assay); format: biochemical; settings: for IC50: ADP-Glo; for PKMYT1 vs. WEE1 selectivity: fold difference in selectivity for PKMYT1 over WEE1
T2 construct: purchased Thermo Fisher PR7373A
In short: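 ADP-Glo luminescence read-out after a 60 min reaction at 26° C, initiated by 30 µM ATP, with 15 nM enzyme in HEPES pH 7.5/MgCl2/EGTA/Brij-35 buffer containing 1% DMSO. Replicate IC50 values had to agree within 3-fold and fits needed r2 >0.9.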

[1] = 15 nM PKMYT1 kinase domain, 500 µM ATP, 60 minutes at 26° C., banded
[2] = 15 nM WEE1, 60 minutes at 26° C., banded
[3] = banded, ">N" = at least in this band but could be higher
[4] = PKMYT1 kinase domain 15 nM, banded values

T2 sequence (P30291 whole entry): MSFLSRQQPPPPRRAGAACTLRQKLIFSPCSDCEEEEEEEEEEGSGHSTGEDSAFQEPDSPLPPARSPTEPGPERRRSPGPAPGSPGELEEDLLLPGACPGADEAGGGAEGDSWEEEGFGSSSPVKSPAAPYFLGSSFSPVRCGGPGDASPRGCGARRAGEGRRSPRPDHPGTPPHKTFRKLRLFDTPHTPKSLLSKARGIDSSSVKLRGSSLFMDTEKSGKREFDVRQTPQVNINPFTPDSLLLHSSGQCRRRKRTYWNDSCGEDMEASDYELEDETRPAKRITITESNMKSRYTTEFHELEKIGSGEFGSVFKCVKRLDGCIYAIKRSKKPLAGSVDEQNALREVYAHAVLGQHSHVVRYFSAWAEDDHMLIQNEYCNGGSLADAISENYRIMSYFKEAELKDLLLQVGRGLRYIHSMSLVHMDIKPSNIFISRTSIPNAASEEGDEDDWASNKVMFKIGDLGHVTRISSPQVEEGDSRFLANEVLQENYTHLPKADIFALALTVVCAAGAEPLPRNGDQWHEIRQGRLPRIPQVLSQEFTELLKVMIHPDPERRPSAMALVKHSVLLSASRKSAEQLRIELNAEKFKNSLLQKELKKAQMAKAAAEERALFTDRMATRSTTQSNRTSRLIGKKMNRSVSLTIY

## Cc1ccc(O)c(C)c1NC(=O)c1cnc(Nc2ccn(CC(=O)N3C[C@@H]4C[C@H]3CN4C)n2)s1 [BAA-172]
Human PKMYT1; [1]
  IC50: < 0.05 µM
WEE1; [2]
  IC50: > 11 µM
WEE1; [3]
  PKMYT1 vs. WEE1 selectivity: X (100-<1000 fold)

## Cc1ccc(O)c(C)c1NC(=O)c1cnc(Nc2nn(C)c3c2CCCC3)s1 [BAA-246, N-(3-hydroxy-2,6-dimethylphenyl)-2-((1-methyl-4,5,6,7-tetrahydro-1H-indazol-3-yl)amino)thiazole-5-carboxamide]
Human PKMYT1; [1]
  IC50: 1 to 11 µM
WEE1; [2]
  IC50: > 11 µM
WEE1; [3]
  PKMYT1 vs. WEE1 selectivity: W (10-<100 fold)

## Cc1ccc(O)c(C)c1NC(=O)c1cnc(NCc2cc3ccccc3[nH]2)s1 [BAA-357, 2-(((1H-indol-2-yl)methyl)amino)-N-(3-hydroxy-2,6-dimethylphenyl)thiazole-5-carboxamide]
Human PKMYT1; [1]
  IC50: 0.05 to 1 µM
WEE1; [2]
  IC50: > 11 µM
WEE1; [3]
  PKMYT1 vs. WEE1 selectivity: X (100-<1000 fold)

## Cc1ccc(O)c(C)c1NC(=O)c1cnc(Nc2cc(C(=O)O)n(C)n2)s1 [BAA-118, 5-[[5-[(3-hydroxy-2,6-dimethyl-phenyl)carbamoyl]thiazol-2-yl]amino]-2-methyl-pyrazole-3-carboxylic acid]
Human PKMYT1; [1]
  IC50: < 0.05 µM
WEE1; [2]
  IC50: > 11 µM
WEE1; [3]
  PKMYT1 vs. WEE1 selectivity: X (100-<1000 fold)

## Cc1ccc(O)c(C)c1NC(=O)c1cnc(Nc2ccnc(-c3ccc(F)cc3)c2)s1 [BAA-304, 2-((2-(4-fluorophenyl)pyridin-4-yl)amino)-N-(3-hydroxy-2,6-dimethylphenyl)thiazole-5-carboxamide]
Human PKMYT1; [1]
  IC50: 0.05 to 1 µM
WEE1; [2]
  IC50: > 11 µM
WEE1; [3]
  PKMYT1 vs. WEE1 selectivity: X (100-<1000 fold)

## Cc1ccc(O)c(C)c1NC(=O)c1cnc(Nc2ccc(S(C)(=O)=O)cc2)s1 [BAA-275, N-(3-Hydroxy-2,6-dimethylphenyl)-2-((4-(methylsulfonyl)phenyl)amino)thiazole-5-carboxamide]
Human PKMYT1; [1]
  IC50: < 0.05 µM
WEE1; [2]
  IC50: > 11 µM
WEE1; [3]
  PKMYT1 vs. WEE1 selectivity: X (100-<1000 fold)

## Cc1ccc(O)c(C)c1NC(=O)c1cnc(Nc2cn(CC(=O)N3CCCC3)nc2C)s1 [BAA-558, N-(3-hydroxy-2,6-dimethylphenyl)-2-((3-methyl-1-(2-oxo-2-(pyrrolidin-1-yl)ethyl)-1H-pyrazol-4-yl)amino)thiazole-5-carboxamide]
Human PKMYT1; [4]
  IC50: 0.05 to 1 µM
WEE1; WEE1 15 nM, banded values
  IC50: > 11 µM
WEE1; banded
  PKMYT1 vs. WEE1 selectivity: Y (1000-5000 fold)

## CCN(CCS(C)(=O)=O)C(=O)Cn1cc(C)c(Nc2ncc(C(=O)Nc3c(C)ccc(O)c3C)s2)n1 [BAA-555, 2-((1-(2-(ethyl(2-(methylsulfonyl)ethyl)amino)-2-oxoethyl)-4-methyl-1H-pyrazol-3-yl)amino)-N-(3-hydroxy-2,6-dimethylphenyl)thiazole-5-carboxamide]
Human PKMYT1; [4]
  IC50: < 0.05 µM
WEE1; WEE1 15 nM, banded values
  IC50: 1 to 11 µM
WEE1; banded
  PKMYT1 vs. WEE1 selectivity: Y (1000-5000 fold)

## CCOC(=O)Cn1ccc(Nc2ncc(C(=O)Nc3c(C)ccc(O)c3C)s2)n1 [BAA-023]
Human PKMYT1; [1]
  IC50: < 0.05 µM
WEE1; [2]
  IC50: 1 to 11 µM
WEE1; [3]
  PKMYT1 vs. WEE1 selectivity: X (100-<1000 fold)

## Cc1cn(CC(=O)N(C)CCS(C)(=O)=O)nc1Nc1ncc(C(=O)Nc2c(C)ccc(O)c2C)s1 [BAA-522, N-(3-hydroxy-2,6-dimethylphenyl)-2-((4-methyl-1-(2-(methyl(2-(methylsulfonyl)ethyl)amino)-2-oxoethyl)-1H-pyrazol-3-yl)amino)thiazole-5-carboxamide]
Human PKMYT1; [4]
  IC50: < 0.05 µM
WEE1; WEE1 15 nM, banded values
  IC50: 1 to 11 µM
WEE1; banded
  PKMYT1 vs. WEE1 selectivity: X (100-<1000 fold)

## Cc1cncc(Nc2ncc(C(=O)Nc3c(C)ccc(O)c3C)s2)n1 [BAA-570, N-(3-hydroxy-2,6-dimethylphenyl)-2-((6-methylpyrazin-2-yl)amino)thiazole-5-carboxamide]
Human PKMYT1; [4]
  IC50: < 0.05 µM
WEE1; WEE1 15 nM, banded values
  IC50: > 11 µM
WEE1; banded
  PKMYT1 vs. WEE1 selectivity: X (100-<1000 fold)

## Cc1ccc(O)c(C)c1NC(=O)c1cnc(NCc2ccccc2C2CC2)s1 [BAA-356, 2-((2-cyclopropylbenzyl)amino)-N-(3-hydroxy-2,6-dimethylphenyl)thiazole-5-carboxamide]
Human PKMYT1; [1]
  IC50: 1 to 11 µM
WEE1; [2]
  IC50: > 11 µM
WEE1; [3]
  PKMYT1 vs. WEE1 selectivity: W (10-<100 fold)

## Cc1ccc(O)c(C)c1NC(=O)c1cnc(NCc2ccccn2)s1 [BAA-349, N-(3-hydroxy-2,6-dimethylphenyl)-2-((pyridin-2-ylmethyl)amino) thiazole-5-carboxamide]
Human PKMYT1; [1]
  IC50: 0.05 to 1 µM
WEE1; [2]
  IC50: > 11 µM
WEE1; [3]
  PKMYT1 vs. WEE1 selectivity: X (100-<1000 fold)

## Cc1ccc(O)c(C)c1NC(=O)c1cnc(Nc2ccon2)s1 [BAA-009, N-(3-hydroxy-2,6-dimethyl-phenyl)-2-(isoxazol-3-ylamino)thiazole-5-carboxamide]
Human PKMYT1; [1]
  IC50: < 0.05 µM
WEE1; [2]
  IC50: > 11 µM
WEE1; [3]
  PKMYT1 vs. WEE1 selectivity: X (100-<1000 fold)

## Cc1ccc(O)c(C)c1NC(=O)c1cnc(Nc2ccn([C@@H]3CCN(C(=O)CC4CCOCC4)C3)n2)s1 [BAA-090]
Human PKMYT1; [1]
  IC50: 0.05 to 1 µM
WEE1; [2]
  IC50: > 11 µM
WEE1; [3]
  PKMYT1 vs. WEE1 selectivity: >X (100-<1000 fold)

## Cc1ccc(O)c(C)c1NC(=O)c1cnc(Nc2ccc(C(F)(F)F)cc2)s1 [BAA-278, N-(3-hydroxy-2,6-dimethylphenyl)-2-((4-(trifluoromethyl)phenyl)amino)thiazole-5-carboxamide]
Human PKMYT1; [1]
  IC50: 1 to 11 µM
WEE1; [2]
  IC50: > 11 µM
WEE1; [3]
  PKMYT1 vs. WEE1 selectivity: W (10-<100 fold)

## COc1ccc2cc(Nc3ncc(C(=O)Nc4c(C)ccc(O)c4C)s3)nn2c1 [BAA-242, N-(3-Hydroxy-2,6-dimethylphenyl)-2-((6-methoxypyrazolo[1,5-a]pyridin-2-yl)amino)thiazole-5-carboxamide]
Human PKMYT1; [1]
  IC50: 0.05 to 1 µM
WEE1; [2]
  IC50: > 11 µM
WEE1; [3]
  PKMYT1 vs. WEE1 selectivity: Y (1000-5000 fold)

## Cc1ccc(O)c(C)c1NC(=O)c1cnc(Nc2ccn([C@@H]3CCN(C(=O)CC4CCNCC4)C3)n2)s1 [BAA-107, N-(3-Hydroxy-2,6-dimethyl-phenyl)-2-[[1-[(3R)-1-[2-(4-piperidyl)acetyl]pyrrolidin-3-yl]pyrazol-3-yl]amino]thiazole-5-carboxamide]
Human PKMYT1; [1]
  IC50: 0.05 to 1 µM
WEE1; [2]
  IC50: > 11 µM
WEE1; [3]
  PKMYT1 vs. WEE1 selectivity: >X (100-<1000 fold)

## CCc1c(O)ccc(C)c1NC(=O)c1cnc(Nc2ccn(CC(=O)N3CCCC3)n2)s1 [BAA-475, N-(2-ethyl-3-hydroxy-6-methylphenyl)-2-((1-(2-oxo-2-(pyrrolidin-1-yl)ethyl)-1H-pyrazol-3-yl)amino) thiazole-5-carboxamide]
Human PKMYT1; [4]
  IC50: < 0.05 µM
WEE1; WEE1 15 nM, banded values
  IC50: > 11 µM
WEE1; banded
  PKMYT1 vs. WEE1 selectivity: Y (1000-5000 fold)

## Cc1ccc(O)c(C)c1NC(=O)c1cnc(Nc2ccn(CC(=O)N3CCN(C(C)C)CC3)n2)s1 [BAA-178]
Human PKMYT1; [1]
  IC50: 0.05 to 1 µM
WEE1; [2]
  IC50: > 11 µM
WEE1; [3]
  PKMYT1 vs. WEE1 selectivity: X (100-<1000 fold)

## Cc1ccc(O)c(C)c1NC(=O)c1cnc(Nc2ccn(CC(=O)N3CCC(O)CC3)n2)s1 [BAA-132, N-(3-Hydroxy-2,6-dimethyl-phenyl)-2-[[1-[2-(4-hydroxy-1-piperidyl)-2-oxo-ethyl]pyrazol-3-yl]amino]thiazole-5-carboxamide]
Human PKMYT1; [1]
  IC50: < 0.05 µM
WEE1; [2]
  IC50: > 11 µM
WEE1; [3]
  PKMYT1 vs. WEE1 selectivity: Y (1000-5000 fold)

## Cc1ccc(O)c(C)c1NC(=O)c1cnc(Nc2ccn(CC(=O)O)n2)s1 [BAA-059, 2-[3-[[5-[(3-hydroxy-2,6-dimethyl-phenyl)carbamoyl]thiazol-2-yl]amino]pyrazol-1-yl]acetic acid]
Human PKMYT1; [1]
  IC50: < 0.05 µM
WEE1; [2]
  IC50: > 11 µM
WEE1; [3]
  PKMYT1 vs. WEE1 selectivity: X (100-<1000 fold)

From patent US20260297042A1, “BIARYLAMIDE DERIVATIVES AND THEIR USE AS PKMYT1 INHIBITORS” (CANCER RESEARCH TECHNOLOGY LIMITED, priority 2023, published 2026)
